Results published in patent US3986930A, “Lipase activity determining method and reagent” (Dainippon Pharmaceutical Co., Ltd., priority 1974, dated 1976).

How the values were obtained:
[1] = biological target: T1, Purified hog pancreatic lipase (type IV, Sigma) (Sus scrofa, UniProt P00591); test: Hydrolysis of S-acyl substrates by purified hog pancreatic lipase, DTNB colorimetry at 412 nm, no PMSF; type: biochemical; details: for Relative activity (%): relative activity of BLME for lipase expressed as 100, 10 μl lipase solution
T1 construct: purchased Sigma Chemical Co. type IV; host or cells: hog pancreas
T1 sequence (P00591 1-450): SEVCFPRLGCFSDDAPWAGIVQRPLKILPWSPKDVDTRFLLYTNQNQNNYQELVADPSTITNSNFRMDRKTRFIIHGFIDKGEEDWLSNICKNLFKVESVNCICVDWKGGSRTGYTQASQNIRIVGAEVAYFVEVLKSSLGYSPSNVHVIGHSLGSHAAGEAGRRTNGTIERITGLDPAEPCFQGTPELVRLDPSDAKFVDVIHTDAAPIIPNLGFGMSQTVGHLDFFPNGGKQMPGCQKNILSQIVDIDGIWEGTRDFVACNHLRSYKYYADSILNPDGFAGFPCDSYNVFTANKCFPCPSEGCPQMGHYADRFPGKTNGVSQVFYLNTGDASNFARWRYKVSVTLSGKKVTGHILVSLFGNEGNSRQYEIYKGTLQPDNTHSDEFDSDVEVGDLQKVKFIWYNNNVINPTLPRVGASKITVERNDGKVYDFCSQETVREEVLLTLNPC
Procedure: The determination of lipase activity by the present invention is carried out based on the following principle. That is, a solution of the substrate [an S-acyl compound of the formula (I), (II), (III) or (IV)] in an alcohol is added to the reaction buffer solution containing the sample with lipase and a chromogenic sulfhydryl reagent which reacts with a SH-group-containing compound [hereinafter, referred to as "SH-compound" ] released from the substrate by lipase. The amount of the released SH-compound or the intensity of the colored reaction mixture is proportional to the lipase activity in the sample, and therefore, the lipase activity can be determined by subjecting the resulting colored reaction mixture to colorimetric readings. As a sulfhydryl reagent, 5,5'-dithiobis(2-nitrobenzoic acid) [hereinafter, referred to as "DTNB" ] is used. In case of the measurement of lipase activity by using the S-acyl compound (I) (X is O) and DTNB, it is assumed that the reaction will proceed as shown in the following scheme: [drawing 6]
(§1) To test tubes I and II are added (c) (1 ml) and a test sample (10 - 1,500 BALB unit of lipase or about 10 μl of human serum), and further to the test tube I is added (b) (20 μl; the concentration of PMSF: about 0.4 mM) and the mixture is allowed to stand at room temperature for 5 minutes to inactivate the existing serum caboxylesterase and/or arylesterase.
(§2) To the test tube I is further added a substrate (a) (0.1 ml). The test tubes I and II are kept for 30 minutes at 38° C, and immediately to the test tube II is added the substrate (a) (0.1 ml) and to these test tubes I and II is added acetone (d) (2 ml) to stop the reaction. After mixed well, the tubes I and II were centrifuged (700 × g, for 10 minutes) to remove insoluble serum proteins and turbidity due to serum lipids and the substrate. The optical density of the supernatant of the tube I is measured at 412 nm in a cuvette of 1 cm light path (OD412 ^1 cm ) against that of the tube II.
Purified hog pancreatic lipase (type IV, a product of Sigma Chemical Co.) is dissolved in 1 % human serum albumin solution to give a solution (10 μg/ml). The lipase activity in 10 μl of this solution (correspondingto 0.1 μ g of lipase) is determined in the same manner as described in Example 2 (substrate: BALB) in the absence of PMSF. The lipase activity measured is 800 BALB units.
One μmole of the released SH-group from the substrate gives 4.75 of OD412 ^1 cm under the conditions described in Example 11, and therefore 1 mg of the purified hog pancreatic lipase is calculated to hydrolyze the S-acyl group of the BALB to give a free SH-group at the rate of 1,670 μmoles/30 minutes.
The same lipase solution (10 μl) as prepared in Example 11 is treated in the same manner as described in Example 2 by using various S-acyl compounds as the substrate in the absence of PMSF. The relative activity of the S-acyl compounds are measured. The results are shown in Table 4, wherein the relative activity of BLME for lipase is expressed as 100.

arylesterase = test: Inhibition of arylesterase by PMSF (rate of hydrolysis of S-acyl substrate, DTNB colorimetry); type: biochemical
Procedure: as §1
as §2, with “After mixed well, the tubes I and II were centrifuged (700 × g, for 10 minutes) to remove insoluble serum proteins and turbidity due to serum lipids and the substrate.” left out, “II. […]” for “II.”
(§3) In the same manner as described in Example 2, lipase of 1,100 BALB unit, carboxylesterase of 450 BALB unit or arylesterase of 60 BALB unit is treated (substrate: BALB), wherein the concentration of PMSF is varied, and then the rate of hydrolysis of BALB (relative activity) is measured.
(§4) In the same manner as described in Example 3, lipase of 1,100 MPB unit, carboxylesterase of 140 MPB unit or arylesterase of 68 MPB unit is treated (substrate: MPB), wherein the concentration of PMSF is varied, and then the rate of hydrolysis of MPB (relative activity) is measured.

lipase = test: Inhibition of lipase by PMSF (rate of hydrolysis of S-acyl substrate, DTNB colorimetry); type: biochemical; details: substrate BLME; 0 - 2.0 mM of PMSF
Procedure: as §1
as §2, with “After mixed well, the tubes I and II were centrifuged (700 × g, for 10 minutes) to remove insoluble serum proteins and turbidity due to serum lipids and the substrate.” left out, “II. […]” for “II.”
as §3
In the same manner as described in Example 3, lipase of 1,100 MPB unit, carboxylesterase of 140 MPB unit or arylesterase of 68 MPB unit is treated (substrate: MPB), wherein the concentration of PMSF is varied, and then the rate of hydrolysis of MPB (relative activity) is measured. […]

[2] = Storage / heat stability of reagent solutions in alcohol; type: physicochemical; details: heated at 120° C for 30 minutes
Description: According to the present method, the measurement of lipase activity can be easily carried out by using so small amount of sample as 1/10 to 1/100 of that in the known methods described hereinbefore and within a shorter time. Moreover, the substrate becomes micellar merely by mixing and shaking with a buffer solution without addition of an emulsifier or vigorous stirring, and further, the solution of the substrate in an alcohol is stable at room temperature for more than 6 months.
The enzyme inhibitor (e.g. PMSF) is preferably preserved in the form of an alcoholic solution (e.g. ethanolic solution). PMSF in an alcohol solution is stable even if it is heated at 120° C for 30 minutes, but if the solution is mixed with the substrate (I), (II), (III) or (IV) in an alcohol, PMSF undergoes chemical reaction with the substrate to lose its action as an esterase-inhibitor, and therefore, both of the solutions must be preserved separately.

carboxylesterase = test: Inhibition of carboxylesterase by PMSF (rate of hydrolysis of S-acyl substrate, DTNB colorimetry); type: biochemical
Procedure: as §1, §2
Besides, test tube III is treated in the same manner as test tube I except that the enzyme inhibitor (b) is omitted.
In the same manner as described in Example 2, the determination of lipase activity is carried out except that the substrate (a' ) is used instead of (a).
as §3, §4
In the same manner as described in Example 9, the determination of lipase activity is carried out by using BLME as the substrate. […]

## CCCC(=O)OC(CSC(=O)CCC)CSC(=O)CCC [2-butyroyloxy-1,3-bisbutyroylthiopropane]
[1]; absence of PMSF
  relative activity as fraction of the relative activity of BALB: less than 1/10

## CCCC(=O)OCC(CSC(=O)CCC)SC(=O)CCC (stereo not shown) [BALB]
[1]; 0.1 μg hog pancreatic lipase, 30 minutes at 38° C, absence of PMSF
  lipase activity measured, OD412 (I-II) x 1,000: 800 BALB units
[1]; absence of PMSF
  activity for lipase (in words): extremely high activity
[1]; per 1 mg purified hog pancreatic lipase, calculated from 4.75 OD412 per μmole SH
  rate of hydrolysis of the S-acyl group to free SH-group by 1 mg of lipase: 1,670 μmoles/30 minutes

## CCCCCCCCCCCC(=O)OCCSC(=O)CCC [BLME, S-butyroyl-O-lauroylmercaptoethanol]
[1]; absence of PMSF
  Relative activity (%): 100%

## O=S(=O)(F)Cc1ccccc1 [PMSF, phenylmethylsulfonyl fluoride]
arylesterase; substrate BALB
  50 % inhibitory concentration for arylesterase as fraction of that for lipase: 1/300
arylesterase; substrate MPB
  50 % inhibitory concentration for arylesterase as fraction of that for lipase: 1/400
lipase
  Inhibition of the lipase activity: negligible
[2]
  stability of alcohol solution on heating: stable
carboxylesterase; substrate BALB
  50 % inhibitory concentration for carboxylesterase as fraction of that for lipase: about 1/100
carboxylesterase; substrate BLME, 0.2 mM or more of PMSF
  carboxylesterase activity inhibited: ≥ 90%
carboxylesterase; substrate MPB
  50 % inhibitory concentration for carboxylesterase as fraction of that for lipase: about 1/200

## CCCC(=O)OC(CSC(=O)CCC)CSC(=O)CCC [drawing 28]
[1]; absence of PMSF
  Relative activity (%): 35%
